Test results from patent US8791148B2, “Substituted benzimidazolone derivatives, medicaments comprising them and their use” (AbbVie Deutschland GmbH & Co. KG, priority 2006, dated 2014).

Target: T1, human vasopressin V1b receptor (Homo sapiens, UniProt P47901)
T1 construct: expressed in transfected cells; host or cells: CHO-K1 (cell line hV1b-3H2_CHO), membrane preparation
T1 sequence (P47901 1-424): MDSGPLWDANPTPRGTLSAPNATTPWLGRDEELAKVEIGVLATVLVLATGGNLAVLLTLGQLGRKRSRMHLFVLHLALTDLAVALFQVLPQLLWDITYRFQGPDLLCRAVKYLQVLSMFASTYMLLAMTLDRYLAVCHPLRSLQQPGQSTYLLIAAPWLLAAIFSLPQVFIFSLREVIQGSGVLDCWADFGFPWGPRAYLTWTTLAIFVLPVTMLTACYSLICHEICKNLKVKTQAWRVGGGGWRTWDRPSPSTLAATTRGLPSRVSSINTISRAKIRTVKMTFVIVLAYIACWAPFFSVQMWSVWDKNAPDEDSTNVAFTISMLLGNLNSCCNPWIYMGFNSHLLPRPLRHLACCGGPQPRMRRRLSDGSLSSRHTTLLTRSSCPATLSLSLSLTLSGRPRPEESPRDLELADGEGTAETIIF
Test: Vasopressin V1b receptor binding assay
Details: membranes from CHO-K1 cells with stably expressed human V1b receptors; displacement of 1.5 nM 3H-AVP; read-out: V1b receptor affinity (affinity constant Ki)
Outline: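 Ki values come from nonlinear regression of triplicate scintillation counts after filtration. Test compound (2% DMSO in the mixture) and radioligand were incubated 60 min at room temperature with human V1b membranes in pH 7.4 Tris buffer with 10 mM MgCl2 and 0.1% BSA. Nonspecific binding was set with 1 uM AVP.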

Row | Compound | Ki [nM]
1 | COc1ccc(S(=O)(=O)n2c(=O)n(C(C(=O)N3CCN(c4ccncc4)CC3)c3ccccc3)c3ccc(Cl)cc32)c(OC)c1 (stereo not drawn) [Example 66, 5-Chloro-3-(2,4-dimethoxybenzenesulfonyl)-1-[2-oxo-1-phenyl-2-(4-pyridin-4-ylpiperazin-1-yl)ethyl]-1,3-dihydrobenzimidazol-2-one] | 500 to 10000
2 | COc1ccccc1C(C(=O)N1CCN(C2CCN(C)CC2)CC1)n1c(=O)n(S(=O)(=O)c2ccc(C#N)cc2)c2ccc(Cl)cc21 (stereo not drawn) [Example 16, 4-(5-Chloro-3-{1-(2-methoxyphenyl)-2-[4-(1-methylpiperidin-4-yl)piperazin-1-yl]-2-oxoethyl}-2-oxo-2,3-dihydrobenzoimidazole-1-sulfonyl)benzonitrile] | 500 to 10000
3 | CN1CCC(N2CCN(C(=O)C(c3ccccc3)n3c(=O)n(S(=O)(=O)c4cccc5cccnc45)c4cc(Cl)c(Cl)cc43)CC2)CC1 (stereo not drawn) [Example 35, 5,6-Dichloro-1-{2-[4-(1-methylpiperidin-4-yl)piperazin-1-yl]-2-oxo-1-phenylethyl}-3-(quinoline-8-sulfonyl)-1,3-dihydrobenzimidazol-2-one] | 500 to 10000
4 | COc1ccc(S(=O)(=O)n2c(=O)n(C(C(=O)N3CCN(C4CCN(C)CC4)CC3)c3ccccc3)c3cc(C#N)ccc32)c(OC)c1 (stereo not drawn) [Example 10, 1-(2,4-Dimethoxybenzenesulfonyl)-3-{2-[4-(1-methylpiperidin-4-yl)piperazin-1-yl]-2-oxo-1-phenylethyl}-2-oxo-2,3-dihydro-1H-benzimidazole-5-carbonitrile] | 500 to 10000
5 | COc1ccc(S(=O)(=O)n2c(=O)n(C(C(=O)N3CC[C@@H](N)C3)c3ccccc3)c3cc(Cl)ccc32)cc1 (stereo partly drawn) [Example 169, 3-[2-((R)-3-Aminopyrrolidin-1-yl)-2-oxo-1-phenylethyl]-5-chloro-1-(4-methoxybenzenesulfonyl)-1,3-dihydrobenzimidazol-2-one] | 500 to 10000
6 | COc1ccc(S(=O)(=O)n2c(=O)n(C(C(=O)N3CCN(C4CCN(C)CC4)CC3)c3ccccc3)c3cc(Cl)c(Cl)cc32)c(OC)c1 (stereo not drawn) [Example 69, 5,6-Dichloro-1-(2,4-dimethoxybenzenesulfonyl)-3-{2-[4-(1-methylpiperidin-4-yl)piperazin-1-yl]-2-oxo-1-phenyl-ethyl}-1,3-dihydrobenzimidazol-2-one] | 500 to 10000
7 | COc1ccc(S(=O)(=O)n2c(=O)n(C(C(=O)N3CCCC3c3ccccc3)c3ccccc3)c3cc(Cl)ccc32)cc1 (stereo not drawn) [Example 83, 5-Chloro-1-(4-methoxybenzenesulfonyl)-3-[2-oxo-1-phenyl-2-(2-phenylpyrrolidin-1-yl)ethyl]-1,3-dihydrobenzimidazol-2-one] | 500 to 10000
8 | COc1ccc(S(=O)(=O)n2c(=O)n(C(C(=O)N3CC[C@@H](N)C3)c3ccccc3)c3cc(C#N)ccc32)cc1 (stereo partly drawn) [Example 172, 3-[2-((R)-3-Aminopyrrolidin-1-yl)-2-oxo-1-phenylethyl]-1-(4-methoxybenzenesulfonyl)-2-oxo-2,3-dihydro-1H-benzimidazole-5-carbonitrile] | 500 to 10000
9 | O=C(C(c1ccccc1)n1c(=O)n(S(=O)(=O)c2cccc3cccnc23)c2cc(Cl)c(Cl)cc21)N1CCN(c2ccncc2)CC1 (stereo not drawn) [Example 40, 5,6-Dichloro-1-[2-oxo-1-phenyl-2-(4-pyridin-4-ylpiperazin-1-yl)ethyl]-3-(quinoline-8-sulfonyl)-1,3-dihydrobenzimidazol-2-one] | 500 to 10000
10 | COc1ccc(S(=O)(=O)n2c(=O)n(CC(=O)N3CCCCC3)c3cc(Cl)ccc32)cc1 [Example 87, 5-Chloro-1-(4-methoxybenzenesulfonyl)-3-(2-oxo-2-piperidin-1-yl-ethyl)-1,3-dihydrobenzimidazol-2-one] | 500 to 10000

Further lines, results first:

Row | Ki [nM] | Compound
11 | 100 to 500 | COc1ccc(S(=O)(=O)n2c(=O)n(CC(=O)N3CCN(c4ccncc4)CC3)c3cc(Cl)ccc32)cc1 [Example 24, 5-Chloro-1-(4-methoxybenzenesulfonyl)-3-[2-oxo-2-(4-pyridin-4-ylpiperazin-1-yl)-ethyl]-1,3-dihydrobenzimidazol-2-one]
12 | 100 to 500 | COc1ccc(S(=O)(=O)n2c(=O)n(C(Cc3ccccc3)C(=O)N3CCN(c4ccncc4)CC3)c3cc(Cl)ccc32)cc1 (stereo not drawn) [Example 27, 3-[1-Benzyl-2-oxo-2-(4-pyridin-4-ylpiperazin-1-yl)ethyl]-5-chloro-1-(4-methoxybenzenesulfonyl)-1,3-dihydrobenzimidazol-2-one]
13 | < 100 | COc1ccc(S(=O)(=O)n2c(=O)n(C(C(=O)N3CC[C@H](NC4CCN(C(C)C)CC4)C3)c3ccccc3)c3cc(C#N)ccc32)cc1 (stereo partly drawn) [Example 208, 3-{2-[(S)-3-(1-Isopropylpiperidin-4-ylamino)pyrrolidin-1-yl]-2-oxo-1-phenylethyl}-1-(4-methoxybenzenesulfonyl)-2-oxo-2,3-dihydro-1H-benzimidazole-5-carbonitrile]
14 | 500 to 10000 | COc1ccc(S(=O)(=O)n2c(=O)n(CC(=O)N3CCC(N4CCN(C)CC4)CC3)c3cc(Cl)ccc32)cc1 [Example 95, 5-Chloro-1-(4-methoxybenzenesulfonyl)-3-{2-[4-(4-methylpiperazin-1-yl)piperidin-1-yl]-2-oxo-ethyl}-1,3-dihydrobenzimidazol-2-one]
15 | 100 to 500 | COc1ccc(S(=O)(=O)n2c(=O)n(C(C(=O)N3CC(N4CCNCC4)C3)c3ccccc3)c3cc(Cl)ccc32)cc1 (stereo not drawn) [Example 148, 5-Chloro-1-(4-methoxybenzenesulfonyl)-3-[2-oxo-1-phenyl-2-(3-piperazin-1-ylazetidin-1-yl)ethyl]-1,3-dihydrobenzimidazol-2-one]
16 | 100 to 500 | COc1ccc(S(=O)(=O)n2c(=O)n(C(C(=O)N3CCN(c4ccncc4)CC3)c3ccccc3OC)c3cc(Cl)ccc32)cc1 (stereo not drawn) [Example 6, 5-Chloro-1-(4-methoxybenzenesulfonyl)-3-[1-(2-methoxyphenyl)-2-oxo-2-(4-pyridin-4-ylpiperazin-1-yl)ethyl]-1,3-dihydrobenzimidazol-2-one]
17 | < 100 | COc1ccc(S(=O)(=O)n2c(=O)n(C(C(=O)N3CCN(c4ccncc4)CC3)c3ccccc3)c3cc(Cl)ccc32)cc1 (stereo not drawn) [Example 58, 5-Chloro-1-(4-methoxybenzenesulfonyl)-3-[2-oxo-1-phenyl-2-(4-pyridin-4-ylpiperazin-1-yl)ethyl]-1,3-dihydrobenzimidazol-2-one]
18 | < 100 | CCCN1CCN(C[C@H]2CCN(C(=O)C(c3ccccc3)n3c(=O)n(S(=O)(=O)c4ccc(OC)cc4)c4ccc(C#N)cc43)C2)CC1 (stereo partly drawn) [Example 235, 1-(4-Methoxy-benzenesulfonyl)-2-oxo-3-{2-oxo-1-phenyl-2-[(R)-3-(4-propylpiperazin-1-ylmethyl)-pyrrolidin-1-yl]-ethyl}-2,3-dihydro-1H-benzoimidazole-5-carbonitrile; compound with trifluoroacetic acid]
19 | < 100 | CCCN1CCN([C@H]2CCCN(C(=O)C(c3ccccc3)n3c(=O)n(S(=O)(=O)c4ccc(OC)cc4)c4ccc(C#N)cc43)C2)CC1 (stereo partly drawn) [Example 191, 1-(4-Methoxybenzenesulfonyl)-2-oxo-3-{2-oxo-1-phenyl-2-[(S)-3-(4-propylpiperazin-1-yl)piperidin-1-yl]ethyl}-2,3-dihydro-1H-benzimidazole-5-carbonitrile]
20 | 100 to 500 | COc1ccc(S(=O)(=O)n2c(=O)n(C(C(=O)NCCN3CCN(C)CC3)c3ccccc3)c3cc(Cl)ccc32)cc1 (stereo not drawn) [Example 115, 2-[6-Chloro-3-(4-methoxybenzenesulfonyl)-2-oxo-2,3-dihydrobenzimidazol-1-yl]-N-[2-(4-methylpiperazin-1-yl)ethyl]-2-phenylacetamide]
21 | < 100 | COc1ccc(S(=O)(=O)n2c(=O)n(C(C(=O)N3CC[C@H](N4CCN(Cc5ccccc5)CC4)C3)c3ccccc3)c3cc(C#N)ccc32)cc1 (stereo partly drawn) [Example 143, 3-{2-[(S)-3-(4-Benzylpiperazin-1-yl)-pyrrolidin-1-yl]-2-oxo-1-phenylethyl}-1-(4-methoxybenzenesulfonyl)-2-oxo-2,3-dihydro-1H-benzimidazole-5-carbonitrile]
22 | 100 to 500 | COc1ccc(S(=O)(=O)n2c(=O)n(C(C(=O)N3CC[C@H](Nc4ccnc(C)c4)C3)c3ccccc3)c3cc(C#N)ccc32)cc1 (stereo partly drawn) [Example 254, 1-(4-Methoxy-benzenesulfonyl)-3-{2-[(S)-3-(2-methyl-pyridine-4-ylamino)-pyrrolidin-1-yl]-2-oxo-1-phenyl-ethyl}-2-oxo-2,3-dihydro-1H-benzoimidazole-5-carbonitrile; compound with trifluoroacetic acid]
23 | 100 to 500 | COc1ccc(S(=O)(=O)n2c(=O)n(C(C(=O)N3CCC[C@@H](NC4CCN(C)CC4)C3)c3ccccc3)c3cc(C#N)ccc32)cc1 (stereo partly drawn) [Example 248, 1-(4-Methoxy-benzenesulfonyl)-3-{2-[(R)-3-(1-methyl-piperidin-4-ylamino)-piperidin-1-yl]-2-oxo-1-phenyl-ethyl}-2-oxo-2,3-dihydro-1H-benzoimidazole-5-carbonitrile]
24 | 100 to 500 | COc1ccc(S(=O)(=O)n2c(=O)n(C(C(=O)N3CCN(c4ccncc4)CC3)c3ccccc3)c3ccc(Cl)cc32)cc1 (stereo not drawn) [Example 73, 5-Chloro-3-(4-methoxybenzenesulfonyl)-1-[2-oxo-1-phenyl-2-(4-pyridin-4-ylpiperazin-1-yl)-ethyl]-1,3-dihydrobenzimidazol-2-one]
